According to paper PMC9099127 (Clinical and Translational Science, 2022):
Where two headings read alike, the source gives them in different places.

Assays:
[1] = assay type: in vivo, human (children 6–17 years); details: single oral dose 1.2 mg/kg LBW
[2] = after a 40 mg oral dose; range associated with therapeutic response; cited from earlier work

Question: With COc1ccnc(C[S+]([O-])c2nc3ccc(OC(F)F)cc3[nH]2)c1OC (centres unmarked) [PAN, pantoprazole] as the compound, how does the “PAN plasma AUCtot, Mean (SD)” value ([1]; CYP2C19 genotype *1*1 (n=30)) read?
Answer: The value was 10.04 (6.81) µM per mg/kg TBW.

Question: And the “PAN plasma AUCtot, Range” value ([1]; CYP2C19 genotype *1*1 (n=30))?
Answer: Its value is “[2.68–33.75] µM per mg/kg TBW”.

Question: And the “PAN plasma AUCtot, Mean (SD)” value ([1]; CYP2C19 genotype *1*2 (n=10))?
Answer: Its value is 18.07 (11.20) µM per mg/kg TBW.

Question: And the “PAN plasma AUCtot, Range” value ([1]; CYP2C19 genotype *1*2 (n=10))?
Answer: Its value is “[7.36–41.31] µM per mg/kg TBW”.

Question: And the “PAN plasma AUCtot, Mean (SD)” value ([1]; CYP2C19 genotype *1*17 (n=16))?
Answer: Its value is 7.84 (4.52) µM per mg/kg TBW.

Question: And the “PAN plasma AUCtot, Range” value ([1]; CYP2C19 genotype *1*17 (n=16))?
Answer: Its value is “[2.26–18.59] µM per mg/kg TBW”.

Question: What about the “PAN plasma AUCtot, Mean (SD)” value ([1]; CYP2C19 genotype *2*2 (n=1)) of the same compound?
Answer: The value was 226.59 (–) µM per mg/kg TBW.

Question: And the “PAN plasma AUCtot, Mean (SD)” value ([1]; CYP2C19 genotype *2*17 (n=3))?
Answer: Its value is 10.42 (3.40) µM per mg/kg TBW.

Question: And the “PAN plasma AUCtot, Range” value ([1]; CYP2C19 genotype *2*17 (n=3))?
Answer: The value was “[7.71–14.23] µM per mg/kg TBW”.

Question: What about the “PAN plasma AUCtot, Mean (SD)” value ([1]; CYP2C19 genotype *17*17 (n=1)) of the same compound?
Answer: The value was 4.18 (–) µM per mg/kg TBW.

Question: And the “typical therapeutic PAN plasma AUCtot” value [2]?
Answer: Its value is 7 to 17 µM.
